# Test results from patent publication US11214803B2, “Modulators of YAP1 expression” (Ionis Pharmaceuticals, Inc., priority 2019, dated 2022).
# Strand notation (5' to 3'): a small letter for the sugar, then the base; units joined by * are phosphorothioate-linked, units joined directly phosphodiester-linked; [ ] holds rarer units or linkages, { } end groups; capitals alone tell only the bases. k = constrained ethyl (cEt); [5mC] = 5-methylcytosine; d = 2'-deoxy (DNA)
# Test system: Yap1 mRNA
# Test: Dose-dependent inhibition of human Yap1 in A-431 cells (Example 6, 5,000 cells per well, RTS4814)
# Assay type: cell-based
# Conditions: for % UTC 148 nM / % UTC 444 nM / % UTC 1333 nM / % UTC 4000 nM: approximately 48 hours; for Yap1 mRNA, % UTC: 48 hours
# Description: Modified oligonucleotides described in the studies above were tested at various doses in A-431 cells. Cultured A-431 cells at a density of 5,000 cells per well were treated using free uptake with modified oligonucleotides diluted to concentrations described in the tables below. After approximately 48 hours, Yap1 mRNA levels were measured as previously described using the Human Yap1 primer-probe set RTS4814. Yap1 mRNA levels were normalized to total RNA content, as measured by RIBOGREEN®. Results are presented in the tables below as percent control of the amount of Yap1 mRNA relative to untreated control cells (% UTC). IC50s were calculated using a linear regression on a log/linear plot of the data in excel.
# [1] = Table 54, A-431 cells, Yap1 mRNA, linear regression on a log/linear plot
# [2] = Table 54, A-431 cells, free uptake, 148 nM, RTS4814
# [3] = Table 54, A-431 cells, free uptake, 444 nM, RTS4814
# [4] = Table 54, A-431 cells, free uptake, 1333 nM, RTS4814
# [5] = Table 54, A-431 cells, free uptake, 4000 nM, RTS4814
# [6] = Table 55, 148 nM, free uptake, A-431 cells 5,000 cells per well, RTS4814
# [7] = Table 55, 444 nM, free uptake, A-431 cells 5,000 cells per well, RTS4814
# [8] = Table 55, 1333 nM, free uptake, A-431 cells 5,000 cells per well, RTS4814
# [9] = Table 55, 4000 nM, free uptake, A-431 cells 5,000 cells per well, RTS4814
# [10] = Table 55, A-431 cells 5,000 cells per well, free uptake, RTS4814
# [11] = Table 53, A-431 cells, Yap1 mRNA, linear regression on a log/linear plot
# [12] = Table 53, A-431 cells, free uptake, 148 nM, RTS4814
# [13] = Table 53, A-431 cells, free uptake, 444 nM, RTS4814
# [14] = Table 53, A-431 cells, free uptake, 1333 nM, RTS4814
# [15] = Table 53, A-431 cells, free uptake, 4000 nM, RTS4814
Substance,IC50 [1],% UTC 148 nM [2],% UTC 444 nM [3],% UTC 1333 nM [4],% UTC 4000 nM [5],"Yap1 mRNA, % UTC [6]","Yap1 mRNA, % UTC [7]","Yap1 mRNA, % UTC [8]","Yap1 mRNA, % UTC [9]",IC50 [10],IC50 [11],% UTC 148 nM [12],% UTC 444 nM [13],% UTC 1333 nM [14],% UTC 4000 nM [15]
716493 (antisense kA*k[5mC]*kA*dT*dT*dG*dA*dA*dA*dG*dA*d[5mC]*d[5mC]*k[5mC]*kT*kT) [compound 716493],> 4 µM,95 % UTC,97 % UTC,86 % UTC,72 % UTC,,,,,,,,,,
716548 (antisense kG*kA*kG*dT*dT*dT*d[5mC]*dA*dA*d[5mC]*dA*d[5mC]*dT*kG*kA*kT) [compound 716548],,,,,,99 % UTC,89 % UTC,79 % UTC,67 % UTC,> 4 µM,,,,,
715577 (kG*k[5mC]*kA*dT*dT*d[5mC]*dA*d[5mC]*dA*dG*dA*dG*dT*kT*kA*kA; antisense) [compound 715577],,,,,,,,,,,> 4 µM,87 % UTC,76 % UTC,73 % UTC,45 % UTC
715508 (k[5mC]*kT*kG*dT*dG*d[5mC]*dT*dG*dG*dG*dA*dT*dT*kG*kA*kT; antisense) [compound 715508],,,,,,,,,,,3.5 µM,78 % UTC,70 % UTC,67 % UTC,43 % UTC
715423 (k[5mC]*k[5mC]*kA*dT*dG*dT*dT*dG*dT*dT*dG*dT*d[5mC]*kT*kG*kA; antisense) [compound 715423],,,,,,,,,,,> 4 µM,83 % UTC,91 % UTC,80 % UTC,57 % UTC
716503 (antisense kT*kT*kA*dT*dT*dA*dT*dG*dA*dG*dT*dG*dA*kT*k[5mC]*kA) [compound 716503],,,,,,91 % UTC,80 % UTC,67 % UTC,64 % UTC,> 4 µM,,,,,
716524 (antisense kA*k[5mC]*kT*dG*dA*dG*dG*dT*dA*dT*dA*dA*d[5mC]*kT*kG*kG) [compound 716524],,,,,,103 % UTC,92 % UTC,96 % UTC,62 % UTC,> 4 µM,,,,,
716479 (antisense kG*kA*kA*d[5mC]*dA*dA*dT*d[5mC]*dT*dT*dG*dA*dA*kG*kG*k[5mC]) [compound 716479],,,,,,88 % UTC,78 % UTC,55 % UTC,57 % UTC,> 4 µM,,,,,
716387 (antisense kT*kA*kT*dG*dG*dT*dT*dT*dA*dT*dA*dT*dA*kG*kT*kA) [compound 716387],,,,,,94 % UTC,94 % UTC,80 % UTC,67 % UTC,> 4 µM,,,,,
716501 (antisense kG*k[5mC]*kA*d[5mC]*dT*dG*dA*dA*dA*dG*dT*dA*d[5mC]*kT*kT*kA) [compound 716501],,,,,,91 % UTC,69 % UTC,66 % UTC,55 % UTC,> 4 µM,,,,,
715471 (kT*kA*kT*d[5mC]*dT*dA*dG*d[5mC]*dT*dT*dG*dG*dT*kG*kG*k[5mC]; antisense) [compound 715471],> 4 µM,82 % UTC,103 % UTC,105 % UTC,79 % UTC,,,,,,,,,,
716543 (antisense kT*kA*kT*dT*dT*dG*dT*dA*dG*d[5mC]*dA*dA*dA*kG*kT*k[5mC]) [compound 716543],,,,,,62 % UTC,99 % UTC,79 % UTC,64 % UTC,> 4 µM,,,,,
716505 (antisense kG*kA*kT*dT*dT*dA*dA*dT*d[5mC]*dT*dT*dT*d[5mC]*kT*kG*k[5mC]) [compound 716505],> 4 µM,83 % UTC,103 % UTC,82 % UTC,66 % UTC,,,,,,,,,,
715523 (kA*kT*k[5mC]*dA*dG*dT*dA*d[5mC]*dT*dG*dG*d[5mC]*d[5mC]*kT*kA*kT; antisense) [compound 715523],,,,,,,,,,,3.2 µM,100 % UTC,62 % UTC,75 % UTC,44 % UTC
715433 (kT*kG*kT*dT*d[5mC]*dT*dT*dA*dT*dG*dG*dT*dT*kT*kA*kT; antisense) [compound 715433],,,,,,,,,,,2.5 µM,87 % UTC,72 % UTC,65 % UTC,40 % UTC
716484 (antisense k[5mC]*kA*k[5mC]*dT*dT*dT*dT*d[5mC]*d[5mC]*dA*dG*d[5mC]*dT*kA*kA*k[5mC]) [compound 716484],> 4 µM,88 % UTC,78 % UTC,80 % UTC,55 % UTC,,,,,,,,,,
716500 (antisense kA*kA*k[5mC]*dT*dT*d[5mC]*dT*dT*dA*d[5mC]*dT*dT*d[5mC]*k[5mC]*kA*kA) [compound 716500],,,,,,88 % UTC,96 % UTC,79 % UTC,46 % UTC,> 4 µM,,,,,
716577 (antisense kT*k[5mC]*kT*dG*dT*d[5mC]*dA*dG*dT*dT*dA*dT*d[5mC]*k[5mC]*kT*kA) [compound 716577],> 4 µM,109 % UTC,93 % UTC,79 % UTC,60 % UTC,,,,,,,,,,
716537 (antisense kA*kT*kG*dT*dG*d[5mC]*dT*d[5mC]*d[5mC]*dA*dT*d[5mC]*dA*kA*k[5mC]*k[5mC]) [compound 716537],,,,,,120 % UTC,96 % UTC,88 % UTC,63 % UTC,> 4 µM,,,,,
715501 (kA*kA*kA*dA*dG*d[5mC]*d[5mC]*dT*dT*dA*dG*dA*dG*kT*k[5mC]*kA; antisense) [compound 715501],,,,,,,,,,,> 4 µM,82 % UTC,82 % UTC,68 % UTC,56 % UTC
715500 (kA*kA*kG*d[5mC]*d[5mC]*dT*dT*dA*dG*dA*dG*dT*d[5mC]*kA*kA*kT; antisense) [compound 715500],,,,,,,,,,,3.6 µM,97 % UTC,72 % UTC,67 % UTC,48 % UTC
716438 (antisense kA*kT*kT*dT*dT*dT*dG*dG*d[5mC]*dT*dT*dG*dT*k[5mC]*kA*kG) [compound 716438],,,,,,93 % UTC,75 % UTC,62 % UTC,49 % UTC,3.4 µM,,,,,
716469 (antisense kG*kT*kT*dT*dG*d[5mC]*dT*d[5mC]*d[5mC]*dT*dT*dT*d[5mC]*k[5mC]*kA*kA) [compound 716469],> 4 µM,71 % UTC,78 % UTC,89 % UTC,39 % UTC,,,,,,,,,,
715479 (kA*kA*kA*d[5mC]*d[5mC]*dA*dT*dT*dA*dT*dT*dA*d[5mC]*kT*k[5mC]*k[5mC]; antisense) [compound 715479],,,,,,,,,,,> 4 µM,98 % UTC,80 % UTC,77 % UTC,64 % UTC
716370 (k[5mC]*kA*kG*dT*dG*d[5mC]*d[5mC]*dT*dG*d[5mC]*dA*dT*d[5mC]*kA*kG*kT; antisense) [compound 716370],> 4 µM,81 % UTC,79 % UTC,69 % UTC,49 % UTC,,,,,,,,,,
715434 (kT*k[5mC]*kT*dT*dG*dT*dT*d[5mC]*dT*dT*dA*dT*dG*kG*kT*kT; antisense) [compound 715434],,,,,,,,,,,2.8 µM,84 % UTC,69 % UTC,64 % UTC,43 % UTC
716376 (k[5mC]*kG*kA*dA*dG*dA*dT*dG*d[5mC]*dT*dG*dA*dG*k[5mC]*kT*kG; antisense) [compound 716376],> 4 µM,103 % UTC,94 % UTC,79 % UTC,50 % UTC,,,,,,,,,,
715414 (kA*kA*k[5mC]*dA*dT*dG*d[5mC]*dT*dG*dT*dG*dG*dA*kG*kT*k[5mC]; antisense) [compound 715414],> 4 µM,91 % UTC,91 % UTC,102 % UTC,67 % UTC,,,,,,,,,,
